Legend:
rhesus H3 receptor [1] = target: T1, rhesus H3 receptor (Macaca mulatta, UniProt Q865E1); experiment: Rhesus H3 [3H]-methylhistamine radioligand binding assay; parameters: species or system rhesus monkey (Macacca Mulatta); settings: [3H]-Methylhistamine 2 nM, rhesus H3 membranes, WGA SPA beads, Cheng-Prusoff
Protocol: (§1) Rhesus H3 membranes were prepared from the Flp-In T-REx 293 Cell Line (Invitrogen) stably transfected with pcDNA5/FRT/TO (Invitrogen) containing the rhesus monkey (Macacca Mulatta) 445 amino acid H3 receptor. (Genbank #AY231164). Stably transfected cultures were amplified in tissue culture flasks by standard tissue culture methods and induced to express rhesus H3 by exposure to 500 ng/ml tetracycline (Cellgro) for 24 hours. After induction, cells were dissociated from flasks utilizing Cell Stripper (Cellgro). Cells were centrifuged (1K×g, 5 min) and pellet frozen in an ethanol-dry ice bath to disrupt cell membranes. Frozen cell pellet was re-suspended in 5 mM HEPES (pH 7.4, Invitrogen) at 10 ml/1000 cm2 of harvested cells. The cell suspension was drawn through an 18 gauge needle (2-3×) followed by a 23 gauge needle (2-3×) to further disrupt cell membranes. The cell suspension was centrifuged (40K×g, 30 min). Cell membrane pellet was re-suspended in 5 mM HEPES (pH 7.4, Invitrogen) at a final protein concentration of 10 mg/ml. Rhesus H3 membranes were stored under liquid nitrogen prior to use in [3H]-Methylhistamine and GTP S radioligand binding assays.
Rhesus H3 radioligand binding assay was performed using rhesus H3 receptor membranes (prepared as described above), [3H]-Methylhistamine (Perkin Elmer) and WGA SPA beads (wheat germ agglutinin scintillation proximity assay) beads (Amersham). The assay was performed in 96-well Opti-Plates (Packard). Each reaction contained 50 μl rhesus H3 membranes (20-30 μg total protein), 50 μl WGA SPA beads (0.1 μg) and 50 μl of 83 Ci/mmol [^3H]-Methylhistamine (final concentration 2 nM) and 50 μl of tested compound. The compounds of this invention and/or vehicle were diluted with binding buffer from 10 mM DMSO stocks. Assay plates were sealed with TopSeal (Perkin Elmer) and mixed on shaker (25° C., 1 hour). Assay plates were read on TopCount scintillation counter (Packard). Results were analyzed by Hill transformation and Ki values were determined by Cheng-Prusoff equation.

rhesus H3 receptor [2] = target: T1, rhesus H3 receptor; experiment: GTPγS radioligand binding assay, inhibition of rhesus H3 constitutive functional activity (inverse agonism); type: biochemical, rhesus monkey (Macacca Mulatta); parameters: concentration or dose not given beside the values; settings: rhesus H3 cell membranes, relative to basal levels
Protocol: as §1

T1 sequence (Q865E1 1-445): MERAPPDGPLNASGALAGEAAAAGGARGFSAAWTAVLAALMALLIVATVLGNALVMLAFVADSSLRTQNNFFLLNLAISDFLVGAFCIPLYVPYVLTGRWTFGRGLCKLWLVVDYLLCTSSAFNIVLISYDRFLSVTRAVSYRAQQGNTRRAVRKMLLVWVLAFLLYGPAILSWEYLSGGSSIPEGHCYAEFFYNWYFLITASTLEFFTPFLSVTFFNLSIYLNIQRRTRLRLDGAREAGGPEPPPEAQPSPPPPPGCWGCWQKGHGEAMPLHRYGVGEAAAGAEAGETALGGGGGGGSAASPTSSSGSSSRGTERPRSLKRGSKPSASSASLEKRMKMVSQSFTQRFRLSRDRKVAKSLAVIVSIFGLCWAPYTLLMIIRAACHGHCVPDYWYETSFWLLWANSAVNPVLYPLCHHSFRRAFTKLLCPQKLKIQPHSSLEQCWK

SMILES | Ki (rhesus H3 receptor [1]) | Inverse Agonism: % inhibition of Basal GTPγS binding in Rhesus H3 (rhesus H3 receptor [2])
Cc1cc(N2CC[C@H](N3CCC[C@H]3C)C2)ccc1N1CCC2(CCN(C(=O)OC(C)(C)C)CC2)C1=O [Example 1, 2-[2-Methyl-4-((2R,3′S)-2-methyl-[1,3′]bipyrrolidinyl-1′-yl)-phenyl]-1-oxo-2,8-diaza-spiro[4.5]decane-8-carboxylic acid tert-butyl ester] | 132 nM | −24%
Cc1cc(N2CC[C@@H](N3CCC[C@H]3C)C2)ccc1N1CCC2(CCN(C(=O)OC(C)(C)C)CC2)C1=O [Example 2, 2-[2-Methyl-4-((2R,3′R)-2-methyl-[1,3′]bipyrrolidinyl-1′-yl)-phenyl]-1-oxo-2,8-diaza-spiro[4.5]decane-8-carboxylic acid tert-butyl ester] | 248 nM | −30%
Cc1cc(N2CC[C@@H](N3CCC[C@@H]3C)C2)ccc1N1CCC2(CCN(C(=O)OC(C)(C)C)CC2)C1=O [Example 3, 2-[2-Methyl-4-((2S,3′R)-2-methyl-[1,3′]bipyrrolidinyl-1′-yl)-phenyl]-1-oxo-2,8-diaza-spiro[4.5]decane-8-carboxylic acid tert-butyl ester] | 7 nM | −23%
Cc1cc(N2CC[C@H](N3CCC[C@@H]3C)C2)ccc1N1CCC2(CCN(C(=O)OC(C)(C)C)CC2)C1=O [Example 4, 2-[2-Methyl-4-((2S,3′S)-2-methyl-[1,3′]bipyrrolidinyl-1′-yl)-phenyl]-1-oxo-2,8-diaza-spiro[4.5]decane-8-carboxylic acid tert-butyl ester] | 43 nM | −31%
Cc1cc(N2CCC(N3CCCC3C)C2)ccc1N1CCC2(CCN(C(=O)OC(C)(C)C)CC2)C1=O (stereo not shown) [Example 5, 2-[2-Methyl-4-(2-methyl-[1,3′]bipyrrolidinyl-1′-yl)-phenyl]-1-oxo-2,8-diaza-spiro[4.5]decane-8-carboxylic acid tert-butyl ester] | 18 nM | −13%
Cc1cc(N2CC[C@H](N3CCC[C@@H]3C)C2)ccc1N1CCC2(CCNCC2)C1=O [Example 6, 2-[2-Methyl-4-((2S,3′S)-2-methyl-[1,3′]bipyrrolidinyl-1′-yl)-phenyl]-2,8-diaza-spiro[4.5]decan-1-one] | 11 nM | −22%
Cc1cc(N2CC[C@@H](N3CCC[C@H]3C)C2)ccc1N1CCC2(CCNCC2)C1=O.Cl [Example 7, 2-[2-Methyl-4-((2R,3′R)-2-methyl-[1,3′]bipyrrolidinyl-1′-yl)-phenyl]-2,8-diaza-spiro[4.5]decan-1-one Hydrochloride] | 15 nM | −22%
Cc1cc(N2CC[C@H](N3CCC[C@H]3C)C2)ccc1N1CCC2(CCNCC2)C1=O.Cl [Example 8, 2-[2-Methyl-4-((2R,3′S)-2-methyl-[1,3′]bipyrrolidinyl-1′-yl)-phenyl]-2,8-diaza-spiro[4.5]decan-1-one Hydrochloride] | 0.8 nM | −26%
Cc1cc(N2CC[C@@H](N3CCC[C@@H]3C)C2)ccc1N1CCC2(CCNCC2)C1=O.Cl [Example 9, 2-[2-Methyl-4-((2S,3′R)-2-methyl-[1,3′]bipyrrolidinyl-1′-yl)-phenyl]-2,8-diaza-spiro[4.5]decan-1-one Hydrochloride] | 0.6 nM | −35%
C[C@H]1CCCN1C1CCN(c2ccc(N3CCC4(CCN(C(=O)OC(C)(C)C)CC4)C3=O)c(F)c2)CC1 [Example 40, 2-{4-[4-(2S-2-Methyl-pyrrolidin-1-yl)-piperidin-1-yl]-2-fluoro-phenyl}-1-oxo-2,8-diaza-spiro[4.5]decane-8-carboxylic acid tert-butyl ester] | – | −21%

Source: patent publication US8604046B2, “Substituted piperidine spiro pyrrolidinone and piperidinone, preparation and therapeutic use thereof” (Sanofi, priority 2008, dated 2013)
